Reference: patent publication US20080009418A1, “Selective Inhibitors” (Alchemia LTD., priority 2004, published 2008)

Columns and labels:
Conditions in all cases: compound at 10 μM
[1] = target: T1, Human κ-Opioid (KOP) (Homo sapiens, UniProt P41145); test: Radioligand binding, human κ-opioid (KOP) membranes, filtration, [3H]-Diprenorphine
T1 construct: purchased Perkin Elmer Biosignal
Outline: (§1)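 Filtration binding on cloned human receptor membranes (1 Unit/well), [125I]-Substance P for NK1 and [3H]-Diprenorphine for KOP, 1 h at room temperature. Filters PEI-presoaked, washed with cold 50 mM Tris-HCl pH 7.4, counted by scintillation; percent inhibition calculated, reference ligand defining non-specific binding.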

[2] = target: T2, Human δ-opioid (DOP) (Homo sapiens, UniProt P41143); test: Radioligand binding, human δ-opioid (DOP) membranes, FlashPlate, [3H]-Bremazocine
T2 construct: purchased Perkin Elmer Biosignal
T2 sequence (P41143 whole entry): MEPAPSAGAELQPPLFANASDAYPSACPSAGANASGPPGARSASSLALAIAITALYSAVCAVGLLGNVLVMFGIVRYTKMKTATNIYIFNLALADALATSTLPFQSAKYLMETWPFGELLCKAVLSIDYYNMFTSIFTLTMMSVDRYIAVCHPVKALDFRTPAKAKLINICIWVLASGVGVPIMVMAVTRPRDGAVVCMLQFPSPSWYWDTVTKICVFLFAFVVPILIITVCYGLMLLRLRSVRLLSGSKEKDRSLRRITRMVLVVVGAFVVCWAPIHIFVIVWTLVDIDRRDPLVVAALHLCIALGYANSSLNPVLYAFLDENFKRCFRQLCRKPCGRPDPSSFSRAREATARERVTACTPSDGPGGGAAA
Outline: (§2)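 Cloned human receptor membranes were coated onto FlashPlate wells and incubated with radioligand and compound (added from a 0.5 mM DMSO daughter plate) for 1 hour at room temperature in the dark. Scintillation counting gave percent inhibition, with DMSO defining total and reference ligand defining non-specific binding.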

[3] = target: T3, Human neuropeptide Y (NPY-Y1) (Homo sapiens, UniProt P25929); test: Radioligand binding, human neuropeptide Y NPY-Y1 membranes, FlashPlate, [125I]-PYY
T3 construct: purchased Perkin Elmer Biosignal
T3 sequence (P25929 1-384): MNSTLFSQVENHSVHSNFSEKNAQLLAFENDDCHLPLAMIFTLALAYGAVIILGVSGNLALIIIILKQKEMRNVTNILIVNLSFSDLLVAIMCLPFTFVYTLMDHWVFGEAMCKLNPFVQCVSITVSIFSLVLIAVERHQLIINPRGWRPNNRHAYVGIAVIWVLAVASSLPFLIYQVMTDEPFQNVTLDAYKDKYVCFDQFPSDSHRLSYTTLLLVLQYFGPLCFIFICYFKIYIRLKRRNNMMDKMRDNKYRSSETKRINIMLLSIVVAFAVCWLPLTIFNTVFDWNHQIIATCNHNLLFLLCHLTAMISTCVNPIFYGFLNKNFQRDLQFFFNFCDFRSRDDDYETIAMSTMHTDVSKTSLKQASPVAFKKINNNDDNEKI
Outline: as §2

[4] = target: T4, Human opioid (ORL1) (Homo sapiens, UniProt P41146); test: Radioligand binding, human opioid ORL1 membranes, FlashPlate, [125I]-Nociceptin
T4 construct: purchased Perkin Elmer Biosignal
T4 sequence (P41146 whole entry): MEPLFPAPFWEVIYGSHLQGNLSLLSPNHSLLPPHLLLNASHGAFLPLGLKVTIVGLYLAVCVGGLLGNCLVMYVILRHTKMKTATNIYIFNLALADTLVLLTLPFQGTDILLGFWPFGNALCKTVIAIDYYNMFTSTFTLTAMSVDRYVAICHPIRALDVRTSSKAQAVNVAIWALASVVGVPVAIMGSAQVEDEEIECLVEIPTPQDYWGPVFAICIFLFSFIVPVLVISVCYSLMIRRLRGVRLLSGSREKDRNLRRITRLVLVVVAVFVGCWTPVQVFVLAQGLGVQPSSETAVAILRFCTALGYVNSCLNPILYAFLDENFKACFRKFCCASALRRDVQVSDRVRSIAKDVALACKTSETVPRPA
Outline: as §2

[5] = target: T5, Human melanin-concentrating hormone (MCH1) (Homo sapiens, UniProt Q99705); test: Radioligand binding, human melanin-concentrating hormone MCH1 membranes, FlashPlate, [125I]-S36057
T5 construct: purchased Perkin Elmer Biosignal
T5 sequence (Q99705 whole entry): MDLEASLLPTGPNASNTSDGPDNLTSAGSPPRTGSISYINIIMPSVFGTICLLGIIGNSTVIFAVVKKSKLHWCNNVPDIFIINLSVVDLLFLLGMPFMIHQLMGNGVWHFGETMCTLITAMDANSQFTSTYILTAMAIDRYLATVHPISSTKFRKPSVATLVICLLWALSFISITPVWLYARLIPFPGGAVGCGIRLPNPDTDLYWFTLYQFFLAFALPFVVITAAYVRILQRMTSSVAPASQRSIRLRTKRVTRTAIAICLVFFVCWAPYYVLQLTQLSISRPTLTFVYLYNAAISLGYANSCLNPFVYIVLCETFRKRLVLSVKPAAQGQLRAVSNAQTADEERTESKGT
Outline: as §2

[6] = target: T6, Human Melanocortin (MC3) (Homo sapiens, UniProt P41968); test: Radioligand binding, human melanocortin MC3 membranes, FlashPlate, [125I]-NDP-αMSH
T6 construct: purchased Perkin Elmer Biosignal
T6 sequence (P41968 whole entry): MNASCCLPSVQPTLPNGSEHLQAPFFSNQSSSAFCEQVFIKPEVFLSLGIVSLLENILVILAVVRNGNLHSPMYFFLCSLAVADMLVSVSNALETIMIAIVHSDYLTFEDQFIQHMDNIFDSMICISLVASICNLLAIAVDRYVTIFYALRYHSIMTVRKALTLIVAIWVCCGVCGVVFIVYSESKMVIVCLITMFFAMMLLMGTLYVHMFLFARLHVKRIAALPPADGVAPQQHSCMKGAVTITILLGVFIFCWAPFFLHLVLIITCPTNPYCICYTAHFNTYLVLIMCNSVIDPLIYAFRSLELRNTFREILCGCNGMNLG
Outline: as §2

[7] = target: T7, Mouse urotensin (mUR2) (Mus musculus, UniProt Q8VIH9); test: Radioligand binding, mouse urotensin mUR2 membranes, FlashPlate, [125I]-Urotensin II
T7 construct: purchased Perkin Elmer Biosignal
T7 sequence (Q8VIH9 1-385): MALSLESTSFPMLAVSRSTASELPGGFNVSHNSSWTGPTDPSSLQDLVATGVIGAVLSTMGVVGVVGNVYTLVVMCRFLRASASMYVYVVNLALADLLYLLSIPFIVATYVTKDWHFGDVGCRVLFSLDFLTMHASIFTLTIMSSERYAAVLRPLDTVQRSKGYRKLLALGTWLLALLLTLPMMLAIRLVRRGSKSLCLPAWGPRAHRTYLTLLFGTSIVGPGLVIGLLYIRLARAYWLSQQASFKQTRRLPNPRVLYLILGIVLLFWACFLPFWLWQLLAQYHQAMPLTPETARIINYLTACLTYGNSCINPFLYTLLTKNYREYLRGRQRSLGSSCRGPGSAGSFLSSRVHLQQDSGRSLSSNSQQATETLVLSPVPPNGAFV
Outline: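 Cloned mouse urotensin (mUR2) receptor membranes from Perkin Elmer Biosignal were immobilized in FlashPlate microplates using a proprietary coating. Each well got 19.5 μl buffer, then 0.5 μl of DMSO, reference ligand, or compound. Adding 5 μl of [125I]-Urotensin II, diluted to 5× final concentration in binding buffer, started binding. Plates were sealed with TopSeal-A and incubated 1 hour at room temperature in the dark. Wells were counted for 30 seconds each on a TopCount after a 60-second delay, and percentage inhibition was calculated.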

[8] = target: T8, Human μ-opioid (MOP) (Homo sapiens, UniProt P35372); test: Radioligand binding, human μ-opioid (MOP) membranes, FlashPlate, [3H]-Naloxone
T8 construct: purchased Perkin Elmer Biosignal
T8 sequence (P35372 whole entry): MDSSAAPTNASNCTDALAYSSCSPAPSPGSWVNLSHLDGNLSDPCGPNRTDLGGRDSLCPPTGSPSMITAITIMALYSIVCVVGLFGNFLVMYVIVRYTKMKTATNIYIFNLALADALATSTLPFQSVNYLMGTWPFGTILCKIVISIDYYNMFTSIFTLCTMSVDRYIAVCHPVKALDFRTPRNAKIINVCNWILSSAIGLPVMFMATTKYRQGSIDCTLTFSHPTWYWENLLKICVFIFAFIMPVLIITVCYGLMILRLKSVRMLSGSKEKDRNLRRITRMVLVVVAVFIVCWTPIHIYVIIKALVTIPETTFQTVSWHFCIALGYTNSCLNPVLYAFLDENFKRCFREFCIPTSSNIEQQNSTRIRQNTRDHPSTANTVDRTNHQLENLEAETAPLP
Outline: as §2

[9] = target: T9, Human melanocortin (MC5) (Homo sapiens, UniProt P33032); test: Radioligand binding, human melanocortin MC5 membranes, FlashPlate, [125I]-NDP-αMSH
T9 construct: purchased Perkin Elmer Biosignal
T9 sequence (P33032 whole entry): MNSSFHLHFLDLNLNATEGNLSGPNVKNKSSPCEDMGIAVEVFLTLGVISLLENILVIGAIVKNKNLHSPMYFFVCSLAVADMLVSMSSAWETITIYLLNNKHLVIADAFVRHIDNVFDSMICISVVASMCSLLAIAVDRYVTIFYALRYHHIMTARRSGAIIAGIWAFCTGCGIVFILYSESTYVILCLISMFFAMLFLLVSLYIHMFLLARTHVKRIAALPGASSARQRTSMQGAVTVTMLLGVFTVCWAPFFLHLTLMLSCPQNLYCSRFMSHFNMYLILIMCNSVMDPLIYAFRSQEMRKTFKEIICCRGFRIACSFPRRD
Outline: as §2

[10] = target: T10, Human neurokinin (NK1) (Homo sapiens, UniProt P25103); test: Radioligand binding, human neurokinin NK1 membranes, filtration, [125I]-Substance P
T10 construct: purchased Perkin Elmer Biosignal
T10 sequence (P25103 whole entry): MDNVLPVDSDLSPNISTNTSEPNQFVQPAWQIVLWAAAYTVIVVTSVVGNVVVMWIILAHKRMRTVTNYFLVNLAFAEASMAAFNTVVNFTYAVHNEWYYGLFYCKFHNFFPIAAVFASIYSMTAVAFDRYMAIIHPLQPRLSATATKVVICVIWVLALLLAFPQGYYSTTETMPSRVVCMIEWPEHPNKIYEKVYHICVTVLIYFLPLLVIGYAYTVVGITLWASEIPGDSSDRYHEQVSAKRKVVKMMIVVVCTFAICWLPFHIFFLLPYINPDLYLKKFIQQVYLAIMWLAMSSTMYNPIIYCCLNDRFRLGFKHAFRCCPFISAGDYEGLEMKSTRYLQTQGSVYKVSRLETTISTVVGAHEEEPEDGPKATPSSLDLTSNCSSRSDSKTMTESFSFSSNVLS
Outline: as §1

[11] = target: T11, Human Melanocortin (MC4) (Homo sapiens, UniProt P32245); test: Radioligand binding, human melanocortin MC4 membranes, FlashPlate, [125I]-NDP-αMSH
T11 construct: purchased Perkin Elmer Biosignal
T11 sequence (P32245 whole entry): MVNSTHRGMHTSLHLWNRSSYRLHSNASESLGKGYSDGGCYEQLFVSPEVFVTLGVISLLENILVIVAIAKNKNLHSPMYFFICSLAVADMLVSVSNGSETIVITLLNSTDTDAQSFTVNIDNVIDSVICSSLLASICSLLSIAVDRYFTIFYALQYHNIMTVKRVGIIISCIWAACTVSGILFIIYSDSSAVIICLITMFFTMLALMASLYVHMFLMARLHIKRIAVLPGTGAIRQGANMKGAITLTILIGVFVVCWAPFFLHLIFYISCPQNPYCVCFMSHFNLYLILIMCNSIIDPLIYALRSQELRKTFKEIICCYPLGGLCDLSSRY
Outline: as §2

T1 sequence (P41145 whole entry): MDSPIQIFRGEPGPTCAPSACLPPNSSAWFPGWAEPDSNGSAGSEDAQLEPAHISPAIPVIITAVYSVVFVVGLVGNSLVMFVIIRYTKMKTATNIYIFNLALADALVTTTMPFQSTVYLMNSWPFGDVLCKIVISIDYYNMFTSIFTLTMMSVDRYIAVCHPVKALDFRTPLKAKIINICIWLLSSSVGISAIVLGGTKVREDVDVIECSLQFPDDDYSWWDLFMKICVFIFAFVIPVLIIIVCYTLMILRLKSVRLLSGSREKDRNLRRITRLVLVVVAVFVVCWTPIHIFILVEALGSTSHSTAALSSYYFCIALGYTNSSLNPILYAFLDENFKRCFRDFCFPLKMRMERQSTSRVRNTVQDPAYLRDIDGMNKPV

## COCC1OC(OCc2ccccc2)C(NC(=O)CCCNC(=N)N)C(OCc2ccccc2)C1O (stereo not shown) [compound 175]
[1]; [3H]-Diprenorphine
  A2 radioligand binding, percentage inhibition: − (“−” indicates less than 50% inhibition at 10 μM)
[2]; [3H]-Bremazocine
  A1 radioligand binding, percentage inhibition: − (“−” indicates less than 50% inhibition at 10 μM)
[3]; [125I]-PYY
  A9 radioligand binding, percentage inhibition: − (“−” indicates less than 50% inhibition at 10 μM)
[4]; [125I]-Nociceptin
  A10 radioligand binding, percentage inhibition: − (“−” indicates less than 50% inhibition at 10 μM)
[5]; [125I]-S36057
  A6 radioligand binding, percentage inhibition: − (“−” indicates less than 50% inhibition at 10 μM)
[6]; [125I]-NDP-αMSH
  A3 radioligand binding, percentage inhibition: − (“−” indicates less than 50% inhibition at 10 μM)
[7]; [125I]-Urotensin II
  A11 radioligand binding, percentage inhibition: − (“−” indicates less than 50% inhibition at 10 μM)
[8]; [3H]-Naloxone
  A7 radioligand binding, percentage inhibition: − (“−” indicates less than 50% inhibition at 10 μM)
[9]; [125I]-NDP-αMSH
  A5 radioligand binding, percentage inhibition: − (“−” indicates less than 50% inhibition at 10 μM)
[10]; [125I]-Substance P
  A8 radioligand binding, percentage inhibition: + (“+” indicates greater than 50% inhibition at 10 μM)
[11]; [125I]-NDP-αMSH
  A4 radioligand binding, percentage inhibition: − (“−” indicates less than 50% inhibition at 10 μM)

## COCC1OC(OCc2ccccc2)C(NC(=O)CNC(=N)N)C(OCc2ccc3ccccc3c2)C1O (stereo not shown) [compound 189]
[1]; [3H]-Diprenorphine, filtration
  A2: inhibition of radioligand binding: − (“−” indicates less than 50% inhibition at 10 μM)
[2]; [3H]-Bremazocine, FlashPlate
  A1: inhibition of radioligand binding: − (“−” indicates less than 50% inhibition at 10 μM)
[3]; [125I]-PYY, FlashPlate
  A9: inhibition of radioligand binding: − (“−” indicates less than 50% inhibition at 10 μM)
[4]; [125I]-Nociceptin, FlashPlate
  A10: inhibition of radioligand binding: − (“−” indicates less than 50% inhibition at 10 μM)
[5]; [125I]-S36057, FlashPlate
  A6: inhibition of radioligand binding: + (“+” indicates greater than 50% inhibition at 10 μM)
[6]; [125I]-NDP-αMSH, FlashPlate
  A3: inhibition of radioligand binding: + (“+” indicates greater than 50% inhibition at 10 μM)
[7]; [125I]-Urotensin II, FlashPlate
  A11: inhibition of radioligand binding: − (“−” indicates less than 50% inhibition at 10 μM)
[8]; [3H]-Naloxone, FlashPlate
  A7: inhibition of radioligand binding: − (“−” indicates less than 50% inhibition at 10 μM)
[9]; [125I]-NDP-αMSH, FlashPlate
  A5: inhibition of radioligand binding: + (“+” indicates greater than 50% inhibition at 10 μM)
[10]; [125I]-Substance P, filtration
  A8: inhibition of radioligand binding: + (“+” indicates greater than 50% inhibition at 10 μM)
[11]; [125I]-NDP-αMSH, FlashPlate
  A4: inhibition of radioligand binding: + (“+” indicates greater than 50% inhibition at 10 μM)

## COC[C@H]1OC(OCCc2ccccc2)[C@H](NC(=O)CCCN)[C@@H](OCc2cccc(O)c2)[C@@H]1O (stereo partly shown) [compound 140]
[1]; [3H]-Diprenorphine
  A2 radioligand binding, percentage inhibition: − (“−” indicates less than 50% inhibition at 10 μM)
[2]; [3H]-Bremazocine
  A1 radioligand binding, percentage inhibition: − (“−” indicates less than 50% inhibition at 10 μM)
[3]; [125I]-PYY
  A9 radioligand binding, percentage inhibition: − (“−” indicates less than 50% inhibition at 10 μM)
[4]; [125I]-Nociceptin
  A10 radioligand binding, percentage inhibition: − (“−” indicates less than 50% inhibition at 10 μM)
[5]; [125I]-S36057
  A6 radioligand binding, percentage inhibition: − (“−” indicates less than 50% inhibition at 10 μM)
[6]; [125I]-NDP-αMSH
  A3 radioligand binding, percentage inhibition: − (“−” indicates less than 50% inhibition at 10 μM)
[7]; [125I]-Urotensin II
  A11 radioligand binding, percentage inhibition: − (“−” indicates less than 50% inhibition at 10 μM)
[8]; [3H]-Naloxone
  A7 radioligand binding, percentage inhibition: − (“−” indicates less than 50% inhibition at 10 μM)
[9]; [125I]-NDP-αMSH
  A5 radioligand binding, percentage inhibition: − (“−” indicates less than 50% inhibition at 10 μM)
[10]; [125I]-Substance P
  A8 radioligand binding, percentage inhibition: + (“+” indicates greater than 50% inhibition at 10 μM)
[11]; [125I]-NDP-αMSH
  A4 radioligand binding, percentage inhibition: − (“−” indicates less than 50% inhibition at 10 μM)

## COC[C@H]1OC(OCCc2ccccc2)[C@H](NC(=O)CCNC(=N)N)[C@@H](OCc2ccc(-c3ccccc3)cc2)[C@@H]1O (stereo partly shown) [compound 41]
[1]; human κ-opioid (KOP) membranes
  A2 radioligand binding inhibition: − (“−” indicates less than 50% inhibition at 10 μM)
[2]; human δ-opioid (DOP) membranes
  A1 radioligand binding inhibition: − (“−” indicates less than 50% inhibition at 10 μM)
[3]; human NPY-Y1 membranes
  A9 radioligand binding inhibition: − (“−” indicates less than 50% inhibition at 10 μM)
[4]; human ORL1 membranes
  A10 radioligand binding inhibition: − (“−” indicates less than 50% inhibition at 10 μM)
[5]; human MCH1 membranes
  A6 radioligand binding inhibition: + (“+” indicates greater than 50% inhibition at 10 μM)
[6]; human melanocortin MC3 membranes
  A3 radioligand binding inhibition: − (“−” indicates less than 50% inhibition at 10 μM)
[7]; mouse urotensin mUR2 membranes
  A11 radioligand binding inhibition: − (“−” indicates less than 50% inhibition at 10 μM)
[8]; human μ-opioid (MOP) membranes
  A7 radioligand binding inhibition: − (“−” indicates less than 50% inhibition at 10 μM)
[9]; human melanocortin MC5 membranes
  A5 radioligand binding inhibition: + (“+” indicates greater than 50% inhibition at 10 μM)
[10]; human neurokinin NK1 membranes
  A8 radioligand binding inhibition: + (“+” indicates greater than 50% inhibition at 10 μM)
[11]; human melanocortin MC4 membranes
  A4 radioligand binding inhibition: + (“+” indicates greater than 50% inhibition at 10 μM)

## COC[C@H]1OC(OCc2ccc(Cl)cc2)[C@H](NC(=O)CCCN)[C@@H](OCc2ccc3ccccc3c2)[C@@H]1O (single isomer, unassigned) [compound 344]
[1]; [3H]-Diprenorphine
  A2: inhibition of radioligand binding, human κ-opioid (KOP): − (“−” indicates less than 50% inhibition at 10 μM)
[2]; [3H]-Bremazocine
  A1: inhibition of radioligand binding, human δ-opioid (DOP): − (“−” indicates less than 50% inhibition at 10 μM)
[3]; [125I]-PYY
  A9: inhibition of radioligand binding, human neuropeptide Y (NPY-Y1): − (“−” indicates less than 50% inhibition at 10 μM)
[4]; [125I]-Nociceptin
  A10: inhibition of radioligand binding, human opioid (ORL1): − (“−” indicates less than 50% inhibition at 10 μM)
[5]; [125I]-S36057
  A6: inhibition of radioligand binding, human melanin-concentrating hormone (MCH1): − (“−” indicates less than 50% inhibition at 10 μM)
[6]; [125I]-NDP-αMSH
  A3: inhibition of radioligand binding, human melanocortin (MC3): − (“−” indicates less than 50% inhibition at 10 μM)
[7]; [125I]-Urotensin II
  A11: inhibition of radioligand binding, mouse urotensin (mUR2): − (“−” indicates less than 50% inhibition at 10 μM)
[8]; [3H]-Naloxone
  A7: inhibition of radioligand binding, human μ-opioid (MOP): − (“−” indicates less than 50% inhibition at 10 μM)
[9]; [125I]-NDP-αMSH
  A5: inhibition of radioligand binding, human melanocortin (MC5): − (“−” indicates less than 50% inhibition at 10 μM)
[10]; [125I]-Substance P
  A8: inhibition of radioligand binding, human neurokinin (NK1): + (“+” indicates greater than 50% inhibition at 10 μM)
[11]; [125I]-NDP-αMSH
  A4: inhibition of radioligand binding, human melanocortin (MC4): − (“−” indicates less than 50% inhibition at 10 μM)
